The values that follow come from patent publication US12297204B2, “5-(substitutedphenyl)-7-thioxo-7,8-dihydropyrimido[4,5-d]pyrimidine-2,4(1H,3H)-dione analogues as antibacterial agents” (KING FAISAL UNIVERSITY, priority 2023, dated 2025).

Values after ≈ are worked out from the molar mass of the structure shown.

In one assay the test system is C. albicans. Nature of the assay: Antimicrobial activity MIC, C. albicans. Type of assay: cell-based, Candida albicans.
Another assay concerns S. aureus. Description: Antimicrobial activity MIC, S. aureus. Type of assay: cell-based, Staphylococcus aureus (MTCC 9660).
Another assay relates to B. subtilis. Nature of the assay: Antimicrobial activity MIC, B. subtilis. Type of assay: cell-based, Bacillus subtilis (MTCC 441).
The test system of another assay is T. atroviridae. Nature of the assay: Antimicrobial activity MIC, T. atroviridae. Type of assay: cell-based, Trichoderma atroviride.
The subject of a further assay is E. coli. Nature of the assay: Antimicrobial activity MIC, E. coli. Type of assay: cell-based, Escherichia coli (MTCC 443).
Another assay concerns P. aeruginosa. Nature of the assay: Antimicrobial activity MIC, P. aeruginosa. Type of assay: cell-based, Pseudomonas aeruginosa (MTCC 424).
In the next assay the test system is P. citrinum. Description: Antimicrobial activity MIC, P. citrinum. Type of assay: cell-based, Penicillium citrinum.
A further assay has as its system A. flavus. Description: Antimicrobial activity MIC, A. flavus. The format is cell-based, Aspergillus flavus.

Consider “5-(4-(Benzyloxy)phenyl)-7-thioxo-7,8-dihydropyrimido[4,5-d]pyrimidine-2,4(1H,3H)-dione [Compound 4b]”, for which the MIC against C. albicans (C. albicans) was determined as 0.005 µM; in the assay on S. aureus (S. aureus), 0.34 µM; in the assay on B. subtilis (B. subtilis), 0.17 µM; with T. atroviridae (T. atroviridae), 0.01 µM; in the assay on E. coli (E. coli) it was 0.17 µM; in the assay with P. aeruginosa (P. aeruginosa) it was 0.17 µM. In addition, the MIC against P. citrinum (P. citrinum) and with A. flavus (A. flavus) was 0.01 µM in each case.
`O=c1[nH]c(=O)c2c(-c3cccc(OCc4ccccc4)c3)nc(=S)[nH]c2[nH]1` [Compound 4a, 5-(3-(Benzyloxy)phenyl)-7-thioxo-7,8-dihydropyrimido[4,5-d]pyrimidine-2,4(1H,3H)-dione]: the MIC in the assay on C. albicans (Candida albicans) was 0.08 µM (≈ 0.0303 µg/mL); against S. aureus (Staphylococcus aureus) it was 0.02 µM (≈ 0.00757 µg/mL); against B. subtilis (Bacillus subtilis), 0.01 µM (≈ 0.00378 µg/mL); in the assay with T. atroviridae (Trichoderma atroviride), 0.17 µM (≈ 0.0643 µg/mL); in the assay on E. coli (Escherichia coli) it was 0.04 µM (≈ 0.0151 µg/mL); against P. aeruginosa (Pseudomonas aeruginosa), 0.04 µM (≈ 0.0151 µg/mL). For the same compound, the MIC against P. citrinum (Penicillium citrinum) and with A. flavus (Aspergillus flavus) was 0.17 µM (≈ 0.0643 µg/mL) throughout.
As to `COc1ccc(-c2nc(=S)[nH]c3[nH]c(=O)[nH]c(=O)c23)cc1O` [Compound 4c, 5-(3-Hydroxy-4-methoxyphenyl)-7-thioxo-7,8-dihydropyrimido[4,5-d]pyrimidine-2,4(1H,3H)-dione], the MIC against C. albicans (Candida albicans) came out at 0.03 µM (≈ 0.00955 µg/mL); against S. aureus (Staphylococcus aureus), 0.4 µM (≈ 0.127 µg/mL); against B. subtilis (Bacillus subtilis), 0.2 µM (≈ 0.0637 µg/mL); in the assay on T. atroviridae (Trichoderma atroviride), 0.05 µM (≈ 0.0159 µg/mL); in the assay with E. coli (Escherichia coli), 0.2 µM (≈ 0.0637 µg/mL); in the assay on P. aeruginosa (Pseudomonas aeruginosa), 0.2 µM (≈ 0.0637 µg/mL). Moreover, the MIC against P. citrinum (Penicillium citrinum) and in the assay with A. flavus (Aspergillus flavus) was 0.05 µM (≈ 0.0159 µg/mL) each time.
Regarding `COc1ccc(-c2nc(=S)[nH]c3c2c(=O)n(C)c(=O)n3C)cc1O` [Compound 4d, 5-(3-Hydroxy-4-methoxyphenyl)-1,3-dimethyl-7-thioxo-7,8-dihydropyrimido[4,5-d]pyrimid-ine-2,4(1H,3H)-dione], the MIC against C. albicans (Candida albicans) amounted to 0.18 µM (≈ 0.0623 µg/mL); in the assay with S. aureus (Staphylococcus aureus) it was 0.012 µM (≈ 0.00416 µg/mL); with B. subtilis (Bacillus subtilis) it was 0.006 µM (≈ 0.00208 µg/mL); in the assay with T. atroviridae (Trichoderma atroviride) it was 0.37 µM (≈ 0.128 µg/mL); against E. coli (Escherichia coli), 0.012 µM (≈ 0.00416 µg/mL); against P. aeruginosa (Pseudomonas aeruginosa), 0.012 µM (≈ 0.00416 µg/mL). Besides, the minimum inhibitory concentration (MIC) against P. citrinum (Penicillium citrinum) and in the assay with A. flavus (Aspergillus flavus) was 0.37 µM (≈ 0.128 µg/mL) throughout.
